In US20100015243A1, “METHOD FOR PREPARING MATERIALS HAVING ANTITHROMBOTIC ACTIVITY FROM MUSKRAT MUSK AND MATERIALS OBTAINED FROM THE METHOD” (priority 2006, published 2010):

System: Thrombin
Experiment: Thrombin time measurement (antithrombotic activity) with Thrombitimer2
Assay type: biochemical
Settings: per 0.1 mg of asprin; time until fibrinogen clots are formed; FIG. 8
Experimental: As for the 4th step, a thrombin time of the divided groups in the 3rd step are measured and the group showing the highest antithrombotic activity is selected. The thrombin time is, but not limited to, a time until fibrinogen clots are formed. For example, with Thrombitimer2 (Behnk Elektronik, Germany), after adding Thrombin (T46481KU-59NIH unit/mg) and fibrinogen, the time until fibrinogen clots are formed is counted.
The activity was measured by counting a thrombin time according to the method described in Choi et al., Kor. J. Pharmacogn. 26, 154-158, 1995 and Son et al., Kor. J. Pharmacogn. 34 (1):52-61, 2004.
Specifically, the thrombin time was measured with Thrombitimer2 (Behnk Elektronik, Germany) wherein a fixed concentration of specimen was dissolved in 10 ? of dimethylsulfoxide (DMSO), the solution was added to a tube with 50 ? of borate buffer (pH7.8), Thrombin 1 unit/50 ? (T46481KU-59NIH unit/mg solid, Sigma Co., USA) was mixed with the solution, the mixture was warmed at 37° C. for 5 minutes, 200 ? of fibrinogen (0.33%, Sigma Co., USA) was added to it, and the time until coaggulation occurs was counted. […]
Antithrombotic activity was measured by counting a thrombin time and the result is an average of at least 3 experiments.

Q: CC(=O)Oc1ccccc1C(=O)O [asprin] was tested. Which thrombin time did it give?
A: The thrombin time was 15 s.
